Publication PMC8292346, “Dysfunction of the key ferroptosis-surveilling systems hypersensitizes mice to tubular necrosis during acute kidney injury” (Nature Communications, 2021)
Values joined by “and” are separate entries in the source; they are usually repeats but may differ in a detail not shown here. Identical values can stand only once.

Test system: NIH3T3 cells
Experiment: TZ-induced necroptosis, 7-AAD/annexin V flow cytometry
Format: cell-based, murine
Conditions: NIH3T3, TZ 16 h
Method: To induce necroptosis in a human cell line, HT29 cells were stimulated at the indicated time points with 20 ng/ml human TNFα (Biolegend), 1 μM SMAC-mimetics (Birinapant, Chemietek), and 20 μM zVAD-fmk (Selleckchem, herein referred to as zVAD). For the induction of necroptosis in NIH3T3 cells, cells were incubated with 20 ng/ml TNF-α and 20 μM zVAD for indicated time points. […] Cells were seeded in six-well plates or petri dishes. […] After indicated time points, cells were collected and prepared for flow cytometry, immunoblotting, and/or LDH release assays.
Cells were harvested and the pellets were washed twice in PBS and stained with 5 μl of 7-AAD (BD Biosciences) and 5 μl of annexin-V-FITC (BD Biosciences) added to 100 μl annexin-V binding buffer (BD Biosciences). After 15 min, cells were recorded on the LSRII with the FACS Diva 6.1.1 software (BD Biosciences) and subsequently analyzed with the FlowJo v10 software (Tree Star).

CCOC(=O)c1ccc(NC2CCCCC2)c(N)c1 [Fer-1, ferrostatin-1]
7-AAD/annexin V flow cytometry, source data of bar graph Fig2i: 7.78% and 9.49% and 6.87% and 10.1%
